Data on one molecule can be found in paper PMC13083723 (Patterns, 2026).

Data set [1] deals with Vero-E6 cells. Briefly: cells. In kind it is cell-based. Particulars: Chlorocebus sabaeus, Vero C1008, 24 h, read-out: PLD effect % in Vero-E6.
Data set [2] relates to CaCo2 cells. The following applies: 10 μM in-assay concentration; ENZO library; amiodarone as positive control.
Data set [3] relates to A549 cells. Briefly: PLD assay of predicted ENZO library compounds in A549 cells. Particulars: Homo sapiens, A549, read-out: PLD effect % in A549.

In the case of `CN(C/C=C/c1ccccc1)Cc1cccc2ccccc12` [Naftifine], the figures for the activation at 10 µM in data set [1] and in data set [3] were -1.6% and 7.5%, respectively. In data set [2], the “PLD effect % in CaCo2” value is −3.3%.
